Test results published in patent US20190290729A1, “PHARMACEUTICAL ASSOCIATION OF GROWTH FACTOR RECEPTOR AGONIST AND ADHESION PROTEIN INHIBITOR FOR CONVERTING A NEOPLASTIC CELL INTO A NON-NEOPLASTIC CELL AND USES THEREOF” (HISTIDE AG, priority 2015, published 2019).
Where no end group is shown, it is not given here.

Key:
MG63 cells [1] = test: pRB phosphorylation level, immunofluorescence staining quantified with ImageJ, osteosarcoma cells; type: cell-based, human; details: MG63 cells; for pRB (%): Table 4, cyclic GFR-binding peptide in association with SiRNA Integrin alpha 3 and SiRNA Integrin beta 1, 400 ng/mL, 24 hours; for pRB: Table 9, in association with SiRNA Integrin alpha 3+SiRNA Integrin beta 1 (SEQ ID NO: 141 to 163)
Method: (§1) The following starting materials and reagents were used: • Type-I collagen sponge was obtained from Sigma®. • PBS 1× was obtained from Gibco®. • MilliQ water: is water characterised in terms of resistivity (typically 18.2 MΩ·cm at 25° C.). • Low glucose Dulbecco's Modified Eagle Medium (DMEM) was obtained from Invitrogen® • Minimum Essential Medium Eagle without ascorbic acid (αMEM) was obtained from Invitrogen®. • All of the cell culture experiments were carried out without any serum in the medium for the first 8 hours of culture. • Osteosarcoma cells: MG63 cells were obtained from ATCC®. These cells were cultured in DMEM (Eagle's Minimum Essential Medium) medium supplemented with 10% fetal calf serum (FCS) and 1% penicillin/streptomycin. All cells were used at a low passage number (passage 10), were subconfluently cultured and were seeded at 10^4 cells/cm^2 for the purpose of the experiments. • Chondrosarcoma cells Hs819.T cells were obtained from ATCC®. These cells were cultured in DMEM (Eagle's Minimum Essential Medium) medium supplemented with 10% fetal calf serum (FCS) and 1% penicillin/streptomycin. All cells were used at a low passage number (passage 10), were subconfluently cultured and were seeded at 10^4 cells/cm^2 for the purpose of the experiments. • Rhabdomyosarcoma cells: A-673 cells were obtained from ATCC®. These cells were cultured in DMEM (Eagle's Minimum Essential Medium) medium supplemented with 10% fetal calf serum (FCS) and 1% penicillin/streptomycin. All cells were used at a low passage number (passage 10), were subconfluently cultured and were seeded at 10^4 cells/cm^2 for the purpose of the experiments. • Adenocarcinoma cells: HCC4006 cells were obtained from ATCC®. These cells were cultured in RPMI-1640 medium (obtained from ATCC®) supplemented with 10% fetal calf serum (FCS) and 1% penicillin/streptomycin. All cells were used at a low passage number (passage 10), were subconfluently cultured and were seeded at 10^4 cells/cm^2 for the purpose of the experiments. • CMFDA is a Cell Tracker Green obtained from Invitrogen®. • DAPI was obtained from Sigma®. • Fetal bovine serum (FBS) was obtained from Gibco®. • Penicillin/streptomycin was obtained from Invitrogen®. • The AlamarBlue® assay was obtained from Molecular Probes®. • Anti phospho-p53 antibody was obtained from Santa Cruz Biotechnology®, • Anti pRB antibody was obtained from Santa Cruz Biotechnology®, • Monoclonal anti-integrin (extracellular domain) αv, α5, α3, α4, β1, β3, β5 and β9 antibodies were obtained from Santa Cruz Biotechnology®, • Cell cytoskeletal filamentous actin (F-actin) was visualized by Alexa Fluor® 488 phalloidin Sigma® labeling. • Monoclonal anti-vinculin antibody (clone hVIN-1, produced in mouse) was obtained from Sigma®.
(§2) • All of the peptides were synthetized using conventional solution and/or solid phase peptide synthesis methods. • All of the experiments were performed with a concentration of 400 ng/mL of GFR-binding compound(s) as defined herein. • All cell culture experiments were performed with cultures on plastic coated with type-I collagen in order to mimic the physiological conditions of the human body. • The compositions of pharmaceutical compositions used in the examples below are summarized in the following table:
(§3) The cells were first fixed for 20 min with 4% paraformaldehyde/PBS at 4° C. After fixation, the cells were permeabilized in PBS containing 1% Triton X-100 for 15 min. Protein immunofluorescent visualization was performed by first treating the cells with 1% (v/v) specific monoclonal antibodies for 1 hour at 37° C. Then the samples were incubated with Alexa Fluor® 568 or 647 (F(ab′)2 fragment of IgG(H+L)) during 30 min at room temperature. The cell nuclei were counterstained in 20 ng/mL DAPI for 10 min at room temperature.
(§4) For this type of quantification the freeware image analysis ImageJ® software was used. […]

MG63 cells [2] = test: p53 protein expression level, immunofluorescence staining quantified with ImageJ, osteosarcoma cells; type: cell-based, human; design: P53: unit not given here; details: for p53 (%): Table 4, cyclic GFR-binding peptide in association with SiRNA Integrin alpha 3 and SiRNA Integrin beta 1, 400 ng/mL, 24 hours; for P53: Table 9, in association with SiRNA Integrin alpha 3+SiRNA Integrin beta 1 (SEQ ID NO: 141 to 163)
Method: as §1, §2, §3, §4

growth factor receptors = test: cell-based or functional assay

Molecule	pRB (%) (MG63 cells [1])	p53 (%) (MG63 cells [2])	pRB (MG63 cells [1])	P53 (MG63 cells [2])	p-Smad1/5/8 (%) (growth factor receptors)
VPTSSSPISTLYIDKGVVTYLKYHYSSVAEDEYDKVV (not fully specified; also: cyclic peptide) [SEQ ID NO: 38205]	16%	40%	–	–	–
CASASPSSVSQDLNAISVLYFIGKTPKILKKYRMIVKSSKSS (Non-cyclic GFR-binding peptide) [SEQ ID NO: 145]	–	–	6	38	–
WWFWGKVPKPSSAPTQLSAISTLYLDEYDKVVLKNYQNMVVR (Non-cyclic GFR-binding peptide) [SEQ ID NO: 162]	–	–	8	39	–
APTGGSATSMLYYDKGVVTYLRKHRGGVVKDKGVVTY (also: cyclic, ring not given here) [SEQ ID NO: 38204]	11%	37%	–	–	–
VPEAASSLSMLFFEIVRKKPIFLKVYPAATVEDKGVVTY (not fully specified; also: cyclic peptide) [SEQ ID NO: 38201]	19%	40%	–	–	–
CGGGSSVPTELSAISTLYLDDYDKVILKKYRNM (Non-cyclic GFR-binding peptide) [SEQ ID NO: 161]	–	–	10	52	–
VPTAAEPISMLYLDEYDKVVKFKYEAAAVSNDKQQII (also: cyclic peptide) [SEQ ID NO: 38206]	8%	36%	–	–	–
CASSAVSQELSAISMLYLGGGLKNYQDM (Non-cyclic GFR-binding peptide) [SEQ ID NO: 155]	–	–	6	47	–
SRVLLRPVQMRKIDKGVVTYKKATVLLEEHDKGVVTY (not fully specified; also: cyclic peptide) [SEQ ID NO: 38216]	11%	41%	–	–	–
CRNVQCRPTQVQLSAISTLYLEIVRKKPLKNYQTLEDH (Non-cyclic GFR-binding peptide) [SEQ ID NO: 149]	–	–	12	35	–
TQVAARPVQTRKIDDMGVPTKKATVAAEDHDKGVVTY (not fully specified; also: cyclic peptide) [SEQ ID NO: 38217]	9%	42%	–	–	–
CKVGKASSVPTKLNAISTLYLDENEKVVLKKYREGMS (Non-cyclic GFR-binding peptide) [SEQ ID NO: 158]	–	–	9	39	–
SRVAARSVKMAKVGGGGGGGKEVQVAAEEHGGGGGG (not fully specified; also: cyclic peptide) [SEQ ID NO: 38213]	21%	49%	–	–	–
CPKPSSAPTQLSAISTLYLDDSSNVILKNYQMIVVRA (Non-cyclic GFR-binding peptide) [SEQ ID NO: 159]	–	–	9	44	–
CASAAPSSVPQKLNAISMLYFVGRKPKVLKKYRMIVRS (Non-cyclic GFR-binding peptide) [SEQ ID NO: 157]	–	–	11	34	–
VPQAAEPLPMLYYDKGVVTYEQLSNAAVRSDKGVVTY (also: cyclic peptide) [SEQ ID NO: 38210]	12%	40%	–	–	–
GTPGPKVPKPSSAPTQLSAISTLYLDEYDKVVLKNYQNMAVR (Non-cyclic GFR-binding peptide) [SEQ ID NO: 163]	–	–	7	41	–
VPTGGEPLTTLYYNDKQQIIEQLSNGGEHSDDMGVPT (also: cyclic peptide) [SEQ ID NO: 38215]	16%	39%	–	–	–
CKIPKASSVPTELNAISVLYFDENEKVILKKYRDMVVEGSG (Non-cyclic GFR-binding peptide) [SEQ ID NO: 144]	–	–	7	40	–
CAVPKASSAPTKLSATSVLYYDSSNNVVLRKHRNMVVK (Non-cyclic GFR-binding peptide) [SEQ ID NO: 146]	–	–	11	38	–
CPSSAPTQLSATSVLYYDDSSNVILRKHRQHNK (Non-cyclic GFR-binding peptide) [SEQ ID NO: 150]	–	–	11	41	–
VPTMMSNITTQIMRIKPHQGQHIGEMSMMQHNDEYDKVV (also: cyclic peptide) [SEQ ID NO: 38212]	14%	51%	–	–	–
NDEGLECVPTEERPVQVRKIRIKPHQGQKKATVFLQHNK (not fully specified) [GFR-binding compound SEQ ID NO: 54]	–	–	–	–	41%
NDEGLECVPTEERPVQVRKIRIKPHQGQKKATVFLQHNK (not fully specified) [GFR-binding compound SEQ ID NO: 59]	–	–	–	–	34%
VPTHHSAISTLYLELAGEKPLKNYQFLQHNK [GFR-binding compound SEQ ID NO: 57]	–	–	–	–	38%
RNVQCRPTQLEPLPIVYYEIVRKKPEQLSNTLEDHLA (not fully specified) [GFR-binding compound SEQ ID NO: 56]	–	–	–	–	47%
RNVQCRPTQLEPLPIVYYEIVRKKPEQLSNTLEDHLA (not fully specified) [GFR-binding compound SEQ ID NO: 61]	–	–	–	–	44%
VSQDLSAISTLYLKIVRKEPLKNYQEMVEE [GFR-binding compound SEQ ID NO: 58]	–	–	–	–	49%
ASASPSSVPQDLEPLTILYYVGRTPKVEQLSNMV [GFR-binding compound SEQ ID NO: 55]	–	–	–	–	32%
